Experimental findings from ChEMBL document CHEMBL1201862, “PubChem BioAssay data set” (2004) are described below.

By GI50 is commonly meant the concentration giving 50% growth inhibition.

Some test systems named below: SN12C; SF-539; TK-10; DU-145; MDA-N; A549; IGROV-1; SNB-75; SW-620; PC-3; NCI-H23; UACC-257; SK-OV-3; HL-60; UACC-62; HT-29; HOP-92; KM12; HCT-15; SR.
Common to all, as to assay: DTP human tumour cell line panel, 48 h

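Briefly, cells in 96-well plates were exposed to five compound concentrations for 48 h, and endpoints were estimated by linear interpolation. GI50: concentration for 50% inhibition of growth.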 Activity calls are given as the source filed them. Rule as the data show it: active = GI50 up to about 1.1 µM and inactive = higher. Where a SMILES comes first, the peptide text is derived from it. The star is where a group is joined. Boc = CC(C)(C)OC(=O)*

`C#C[C@]1(O)CC[C@H]2[C@@H]3CCC4=C/C(=N/OC(=O)c5cccc6c(=O)c7ccccc7[nH]c56)CC[C@@H]4[C@H]3CC[C@@]21C`: the GI50 with SN12C was > 100 µM (inactive); in the test on SF-539 it was 29.5 µM (inactive); in the test with TK-10, > 100 µM (inactive); in the test with DU-145, 61.9 µM (inactive); in the test with MDA-N it was 43.2 µM (inactive); in the test on A549, 64.3 µM (inactive). The GI50 in the test on IGROV-1 was 68.4 µM (inactive); with SNB-75, 97.7 µM (inactive); in the test on SW-620, 56.2 µM (inactive); with PC-3 it was 37.5 µM (inactive); with NCI-H23 it was 40.6 µM (inactive); with UACC-257, 37.2 µM (inactive). Besides, the GI50 in the test on SK-OV-3 is > 100 µM (inactive); in the test with HL-60, 17.4 µM (inactive); in the test with UACC-62, 35.6 µM (inactive); with HT-29, 52.5 µM (inactive); in the test on HOP-92, > 100 µM (inactive); in the test on KM12, 34.8 µM (inactive). The results for the GI50 with HCT-15 and in the test with SR were 36.5 µM and 12.1 µM (inactive), respectively.
Turning to `CC1=C(/C=C/C(C)=C/C=C/C(C)=C/C(=O)OCC2OC(n3cc(F)c(=O)[nH]c3=O)CC2OC(=O)/C=C(C)/C=C/C=C(C)/C=C/C2=C(C)CCCC2(C)C)C(C)(C)CCC1` (stereo not given), the GI50 with SN12C was 7.43 µM (inactive); in the test on SF-539 it was 0.314 µM (active); in the test on TK-10, 21.6 µM (inactive); in the test on DU-145, 1.27 µM (inactive); in the test on MDA-N, 10.4 µM (inactive); in the test with A549 it was 0.402 µM (active). Also, the GI50 in the test with IGROV-1 was 6.32 µM (inactive); with SNB-75 it was 10.4 µM (inactive); in the test on SW-620, 12.1 µM (inactive); in the test with PC-3, 8.95 µM (inactive); in the test on NCI-H23, 10.4 µM (inactive); with UACC-257, 9.23 µM (inactive). For the same compound, the GI50 in the test with SK-OV-3 is 30.5 µM (inactive); in the test on HL-60 it was 1.14 µM (inactive); in the test with UACC-62, 0.83 µM (active); with HT-29, 11.2 µM (inactive); in the test with HOP-92, 1.25 µM (inactive); in the test with KM12, 23.9 µM (inactive). The results for the GI50 in the test with HCT-15 and in the test on SR were 13.2 µM and 0.794 µM (active), respectively.
As to `CCN1C(=O)/C(=C/Nc2ccccc2)S/C1=N/Nc1nc(-c2ccc(O)c(O)c2)cs1`, the GI50 was 4.24 µM (inactive) with SN12C; 2.07 µM (inactive) with SF-539; 38.5 µM (inactive) in the test with TK-10; 5.64 µM (inactive) with DU-145; 1.71 µM (inactive) in the test on MDA-N; 33.7 µM (inactive) with A549. The GI50 in the test with IGROV-1 was 32.6 µM (inactive); in the test with SNB-75, 3.05 µM (inactive); with SW-620 it was 8.47 µM (inactive); in the test with PC-3 it was 33.9 µM (inactive); in the test with NCI-H23 it was 7.18 µM (inactive); in the test on UACC-257, 6.44 µM (inactive). Further, the GI50 in the test with SK-OV-3 was 33.5 µM (inactive); with HL-60, 2.33 µM (inactive); in the test with UACC-62 it was 6.4 µM (inactive); with HT-29, 29.8 µM (inactive); in the test with HOP-92 it was 13.2 µM (inactive); in the test with KM12 it was 5.01 µM (inactive). Also, the concentration for 50% growth inhibition (GI50) in the test with HCT-15 was 7.76 µM; in the test with SR it was 2.7 µM (inactive).
As to `C/C(=N\N)C(CN(C)C)C(c1ccccc1)c1c(O)c2ccccc2oc1=O` (stereo not given), the GI50 with SN12C, in the test on SF-539, in the test on TK-10, in the test on DU-145, with MDA-N and in the test with A549 was > 100 µM (inactive) throughout. In addition, the GI50 in the test with IGROV-1 was > 100 µM (inactive); in the test on SNB-75, > 42.4 µM (inactive); in the test on SW-620, > 100 µM (inactive); in the test on PC-3 it was > 100 µM (inactive); in the test with NCI-H23 it was > 100 µM (inactive); in the test on UACC-257, > 100 µM (inactive). Besides, the GI50 in the test on SK-OV-3 was > 100 µM (inactive); with HL-60, > 26.7 µM (inactive); in the test on UACC-62, > 73.6 µM (inactive); with HT-29 it was > 100 µM (inactive); in the test on HOP-92, 25.2 µM (inactive); in the test on KM12, > 100 µM (inactive). Further, the values for the 50% growth inhibitory concentration (GI50) in the test with HCT-15 and with SR were greater than 100 µM and > 67.1 µM (inactive), respectively.
For `Cc1ccc(CC(Cc2ccc(C)cc2C(=O)O)C(=O)O)cc1` (stereo not given), the GI50 in the test on SN12C, in the test with SF-539, with TK-10, in the test on DU-145, in the test with MDA-N and in the test on A549 was > 100 µM (inactive) throughout. The GI50 with IGROV-1, with SNB-75, in the test with SW-620, in the test on PC-3, in the test with NCI-H23 and with UACC-257 was > 100 µM (inactive) throughout. In addition, the GI50 with SK-OV-3 was > 100 µM (inactive); in the test on HL-60, > 100 µM (inactive); in the test on UACC-62, 43 µM (inactive); in the test on HT-29, > 100 µM (inactive); in the test on HOP-92, > 100 µM (inactive); with KM12, > 100 µM (inactive). Moreover, the values for the GI50 in the test with HCT-15 and in the test on SR were greater than 100 µM and > 100 µM (inactive), respectively.
Regarding `CC1=C(C)C(=O)C(C2=C(C3=CC(=O)C(C)=C(C)C3=O)C(=O)c3ccccc3C2=O)=CC1=O`, the GI50 is 1.85 µM (inactive) in the test on SN12C; 2.36 µM (inactive) in the test with SF-539; 6.35 µM (inactive) with TK-10; 2.95 µM (inactive) in the test on DU-145; 1.91 µM (inactive) with MDA-N; 5.21 µM (inactive) with A549. Also, the GI50 is 2.48 µM (inactive) in the test with IGROV-1; 9.79 µM (inactive) in the test on SNB-75; 1.82 µM (inactive) in the test on SW-620; 2.61 µM (inactive) in the test on PC-3; 2.79 µM (inactive) in the test with NCI-H23; 1.99 µM (inactive) in the test on UACC-257. The GI50 in the test on SK-OV-3 is 16.5 µM (inactive); in the test with HL-60 it was 0.255 µM (active); with UACC-62 it was 2.51 µM (inactive); with HT-29, 2.2 µM (inactive); in the test with HOP-92, 2.55 µM (inactive); in the test on KM12, 3.33 µM (inactive). Also, the concentration for 50% growth inhibition (GI50) is 2.12 µM in the test with HCT-15 and 1.47 µM (inactive) in the test on SR.
Take `COC(=O)C(C)NC(=O)C(CCSC)NC(=O)C(Cc1ccccc1)NC(=O)OC(C)(C)C` (stereo not drawn) (Boc-Phe-Met-Ala-OMe; configuration not given here): the GI50 with SN12C, in the test on SF-539, with TK-10, in the test on DU-145, in the test with MDA-N and in the test on A549 was > 100 µM (inactive) throughout. The GI50 in the test with IGROV-1, with SNB-75, in the test with SW-620, in the test with PC-3, in the test on NCI-H23 and in the test with UACC-257 was > 100 µM (inactive) each time. The GI50 in the test on SK-OV-3 is > 100 µM (inactive); in the test on HL-60, 63.2 µM (inactive); with UACC-62, > 100 µM (inactive); in the test on HT-29 it was > 100 µM (inactive); in the test on HOP-92 it was > 100 µM (inactive); with KM12, > 100 µM (inactive). Besides, the concentration for 50% growth inhibition (GI50) in the test on HCT-15 is greater than 100 µM; in the test on SR it was > 100 µM (inactive).
